Source: patent US20200323962A1, “LIPOPHILIC PEPTIDE PRODRUGS” (YISSUM RESEARCH DEVELOPMENT COMPANY OF THE HEBREW …, priority 2017, published 2020)
Read-outs that look alike come from different tables or passages of the source. Marks after values point to notes of the source that are not given here. Where a SMILES comes first, the peptide text is derived from it. [ ]: non-standard residue; d: D form. Arg(ω,ω'-(C6H13OCO)2) = CCCCCCOC(=O)N=C(NCCC[C@H](N)C(=O)O)NC(=O)OCCCCCC

How the values were obtained:
[1] = for Mass retention / Permeability, Mean / Permeability, replicate 1 / Permeability, replicate 2 / Permeability, replicate 3: PAMPA, pH 7.4
[2] = pH 7.4, LogD
[3] = for Papp A→B: Caco-2, Papp (AB); for Papp B→A: Caco-2, Papp (BA)
in vitro = conditions: human; for efflux ratio at 90 min, 10 µM: Caco-2, pH 7.4, Net efflux (quotient of Papp (BA) to Papp (AB)); for Papp A→B at 90 min, 10 μM: Caco-2, pH 7.4, Papp (AB); for Papp B→A at 90 min, 10 μM: Caco-2, pH 7.4, Papp (BA)
[4] = pH 7.4 (mean in parentheses below reported bound)

Row | SMILES | PAMPA permeability [1] | Mass retention [1] | Permeability, Mean [1] | Permeability, replicate 1 [1] | Permeability, replicate 2 [1] | Permeability, replicate 3 [1] | logD ([2]; pH 7.4 (mean / reported value)) | Papp A→B ([3]; Mean) | Papp A→B ([3]; replicate 1) | Papp A→B ([3]; replicate 2) | Papp B→A ([3]; Mean) | Papp B→A ([3]; replicate 1) | Papp B→A ([3]; replicate 2) | Papp B→A ([3]; replicate 3) | efflux ratio at 90 min, 10 µM (in vitro) | further results
1 | CC(C)C[C@@H]1NC(=O)CNC(=O)[C@@H]2CCCN2C(=O)[C@@H]2CCCN2C(=O)[C@H](CC(C)C)NC(=O)[C@H](CC(=O)O)NC(=O)CNC(=O)[C@H](CCCNC(=N)N)NC1=O [FRX068] (cyclo(RGDLPPGL)) |  | 2% | <−7 Log10[10^−6 cm/s] | <−7 Log10[10^−6 cm/s] | <−7 Log10[10^−6 cm/s] | <−7 Log10[10^−6 cm/s] | < -1 | 0.3 ×10⁻⁶ cm/s | 0.3 ×10⁻⁶ cm/s | 0.2 ×10⁻⁶ cm/s | 0.3 ×10⁻⁶ cm/s | 0.3 ×10⁻⁶ cm/s | 0.3 ×10⁻⁶ cm/s | 0.3 ×10⁻⁶ cm/s | 1.1 | logD [2, 4]: -1.49; Papp A→B ([3]; replicate 3): 0.2 ×10⁻⁶ cm/s
2 | CC(C)NCC(O)COc1cccc2ccccc12 (stereo not drawn) [Propranolol] |  |  |  |  |  |  |  |  |  |  |  |  |  |  | 0.8 | Papp A→B at 90 min, 10 μM (in vitro; Mean): 18.1 ×10⁻⁶ cm/s; Papp A→B at 90 min, 10 μM (in vitro; replicate 1): 14.9 ×10⁻⁶ cm/s; Papp A→B at 90 min, 10 μM (in vitro; replicate 2): 24.1 ×10⁻⁶ cm/s; Papp A→B at 90 min, 10 μM (in vitro; replicate 3): 15.3 ×10⁻⁶ cm/s; Papp B→A at 90 min, 10 μM (in vitro; Mean): 15.3 ×10⁻⁶ cm/s; Papp B→A at 90 min, 10 μM (in vitro; replicate 2): 15.3 ×10⁻⁶ cm/s; Papp B→A at 90 min, 10 μM (in vitro; replicate 3): 17 ×10⁻⁶ cm/s
3 | C=C[C@H]1C[N@@]2CC[C@H]1C[C@@H]2[C@@H](O)c1ccnc2ccc(OC)cc12 [Quinidine, reference compound] |  |  | −4.5* Log10[10^−6 cm/s] | −4.6 Log10[10^−6 cm/s] | −4.5 Log10[10^−6 cm/s] | −4.5 Log10[10^−6 cm/s] |  |  |  |  |  |  |  |  |  | Mass retention ([1]; 4 h, 50 μM): 56%

The next lines start with results.

Row | PAMPA permeability [1] | Mass retention [1] | Permeability, Mean [1] | Permeability, replicate 1 [1] | Permeability, replicate 2 [1] | Permeability, replicate 3 [1] | logD ([2]; pH 7.4 (mean / reported value)) | Papp A→B ([3]; Mean) | Papp A→B ([3]; replicate 1) | Papp A→B ([3]; replicate 2) | Papp B→A ([3]; Mean) | Papp B→A ([3]; replicate 1) | Papp B→A ([3]; replicate 2) | Papp B→A ([3]; replicate 3) | efflux ratio at 90 min, 10 µM (in vitro) | SMILES | further results
4 | low permeability | 10% | <−7 Log10[10^−6 cm/s] | <−7 Log10[10^−6 cm/s] | <−7 Log10[10^−6 cm/s] | <−7 Log10[10^−6 cm/s] |  |  |  |  |  |  |  |  |  | CCCCCCOC(=O)N=C(N)NCCC[C@@H]1NC(=O)[C@@H](C(C)C)N(C)C(=O)[C@H](C)N(C)C(=O)[C@H](C)NC(=O)[C@H](CC(=O)OC)NC(=O)CNC1=O [#29P-Hoc] | 
5 | >−5 to >−6 | 80% | −5.9 Log10[10^−6 cm/s] | −6.2 Log10[10^−6 cm/s] | −5.7 Log10[10^−6 cm/s] | −5.7 Log10[10^−6 cm/s] | > 4.5 | < 0.01 ×10⁻⁶ cm/s | < 0.01 ×10⁻⁶ cm/s | < 0.01 ×10⁻⁶ cm/s | 0.4 ×10⁻⁶ cm/s | 0.5 ×10⁻⁶ cm/s | 0.5 ×10⁻⁶ cm/s | 0.3 ×10⁻⁶ cm/s |  | CCCCCCOC(=O)N=C(NCCC[C@@H]1NC(=O)[C@H](Cc2ccccc2)NC(=O)[C@@H]2CCCN2C(=O)[C@@H]2CCCN2C(=O)[C@H](CC(C)C)NC(=O)[C@H](C)NC(=O)[C@H](CC(C)C)NC(=O)[C@H](CC(=O)OC)NC(=O)CNC1=O)NC(=O)OCCCCCC [AR372] (cyclo(ALPPF[Arg(ω,ω'-(C6H13OCO)2)]GD(OMe)L)) | logD [2, 4]: 4.85; logD ([2]; pH 7.4 (single replicate)): 4.8; Papp A→B ([3]; replicate 3): < 0.01 ×10⁻⁶ cm/s
6 | does not enhance the permeability | 36% | −6.5 Log10[10^−6 cm/s] | −8.1 Log10[10^−6 cm/s] | −6.6 Log10[10^−6 cm/s] | −6.5 Log10[10^−6 cm/s] |  |  |  |  |  |  |  |  |  | CCCCCCOC(=O)N=C(NCCC[C@@H]1NC(=O)[C@H](C(C)C)N(C)C(=O)[C@@H](Cc2ccccc2)NC(=O)[C@H](CC(=O)OC)NC(=O)CNC1=O)NC(=O)OCCCCCC [Cil.-P, c(f*VR(Hoc)2 GD)] | 
7 |  | 13% | <−7 Log10[10^−6 cm/s] | <−7 Log10[10^−6 cm/s] | <−7 Log10[10^−6 cm/s] | <−7 Log10[10^−6 cm/s] | -0.19 | < 0.3 ×10⁻⁶ cm/s | < 0.6 ×10⁻⁶ cm/s | < 0.3 ×10⁻⁶ cm/s | 0.2 ×10⁻⁶ cm/s | 0.1 ×10⁻⁶ cm/s | 0.2 ×10⁻⁶ cm/s | 0.3 ×10⁻⁶ cm/s | 0.6 | CC(C)C[C@@H]1NC(=O)[C@H](CC(=O)O)NC(=O)CNC(=O)[C@H](CCCNC(=N)N)NC(=O)[C@H](Cc2ccccc2)NC(=O)[C@@H]2CCCN2C(=O)[C@@H]2CCCN2C(=O)[C@H](CC(C)C)NC(=O)[C@H](C)NC1=O [OM1186] (cyclo(RGDLALPPF)) | 
